Test results published in US20260262643A1, “HERBICIDAL BENZOXAZINES” (FMC CORPORATION, priority 2022, published 2026).

Experiments:
blackgrass [1] = test: Test A preemergence; assay type: in vivo, Alopecurus myosuroides
In short: (§1)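 Plants were grown in loam and sand and treated preemergence or postemergence (one- to two-leaf stage, 2–10 cm) with compound in solvent plus surfactant. Response was scored against untreated controls after 10 greenhouse days, where 0 means no effect and 100 complete control.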

corn [2] = test: Test A preemergence; assay type: in vivo, Zea mays
In short: as §1

foxtail, giant [3] = test: Test A preemergence; assay type: in vivo, Setaria faberi
In short: as §1

goosegrass [4] = test: Test A preemergence; assay type: in vivo, Eleusine indica
In short: as §1

oat, wild [5] = test: Test A preemergence; assay type: in vivo, Avena fatua
In short: as §1

pigweed, palmer [6] = test: Test A preemergence; assay type: in vivo, Amaranthus palmeri
In short: as §1

ragweed [7] = test: Test A preemergence; assay type: in vivo, Ambrosia artemisiifolia
In short: as §1

ryegrass, Italian [8] = test: Test A preemergence; assay type: in vivo, Lolium multiflorum
In short: as §1

soybean [9] = test: Test A preemergence; assay type: in vivo, Glycine max
In short: as §1

wheat [10] = test: Test A preemergence; assay type: in vivo, Triticum aestivum
In short: as §1

blackgrass [11] = test: Test A postemergence; assay type: in vivo, Alopecurus myosuroides; details: postemergence, 10 days
In short: as §1

corn [12] = test: Test A postemergence; assay type: in vivo, Zea mays; details: postemergence, 10 days
In short: as §1

foxtail, giant [13] = test: Test A postemergence; assay type: in vivo, Setaria faberi; details: postemergence, 10 days
In short: as §1

goosegrass [14] = test: Test A postemergence; assay type: in vivo, Eleusine indica; details: postemergence, 10 days
In short: as §1

kochia = test: Test A postemergence; assay type: in vivo, Bassia scoparia; details: postemergence, 10 days
In short: as §1

oat, wild [15] = test: Test A postemergence; assay type: in vivo, Avena fatua; details: postemergence, 10 days
In short: as §1

pigweed, palmer [16] = test: Test A postemergence; assay type: in vivo, Amaranthus palmeri; details: postemergence, 10 days
In short: as §1

ragweed [17] = test: Test A postemergence; assay type: in vivo, Ambrosia artemisiifolia; details: postemergence, 10 days
In short: as §1

ryegrass, Italian [18] = test: Test A postemergence; assay type: in vivo, Lolium multiflorum; details: postemergence, 10 days
In short: as §1

soybean [19] = test: Test A postemergence; assay type: in vivo, Glycine max; details: postemergence, 10 days
In short: as §1

wheat [20] = test: Test A postemergence; assay type: in vivo, Triticum aestivum; details: postemergence, 10 days
In short: as §1

galium = test: Test A postemergence; assay type: in vivo, Galium aparine; details: postemergence, 10 days
In short: as §1

horseweed = test: Test A postemergence; assay type: in vivo, Erigeron canadensis; details: postemergence, 10 days
In short: as §1

barnyardgrass = test: Test B flooded paddy test; assay type: in vivo, Echinochloa crus-galli; details: 250 g ai/ha, Flood, 13 days, 0 to 100 scale (0 no effect, 100 complete control)
In short: (§2)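 Two-leaf plants, 3 cm flood, in-water application, 13-day greenhouse hold, visual 0–100 rating vs untreated checks.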

ducksalad = test: Test B flooded paddy test; assay type: in vivo, Heteranthera limosa; details: 250 g ai/ha, Flood, 13 days, 0 to 100 scale (0 no effect, 100 complete control)
In short: as §2

rice = test: Test B flooded paddy test; assay type: in vivo, Oryza sativa; details: 250 g ai/ha, Flood, 13 days, 0 to 100 scale (0 no effect, 100 complete control)
In short: as §2

sedge, umbrella = test: Test B flooded paddy test; assay type: in vivo, Cyperus difformis; details: 250 g ai/ha, Flood, 13 days, 0 to 100 scale (0 no effect, 100 complete control)
In short: as §2

[21] = 125 g ai/ha, visual injury after 10 days, 0 to 100 scale, 0 is no effect, 100 is complete control
[22] = 500 g ai/ha, 0 to 100 scale (0 no effect, 100 complete control), 10 days
[23] = 125 g ai/ha, 0 to 100 scale, 0 no effect, 100 complete control
[24] = 500 g ai/ha, visual injury, 0 to 100 scale (0 no effect, 100 complete control)

## C[C@H]1CN(C(=O)c2cccc(-n3cnc(CC4CCCCC4)n3)c2)c2cccc(Cl)c2O1 [Compound 90]
Blackgrass [1]; [21]
  Plant response rating, Blackgrass: 0
Blackgrass [1]; [22]
  Plant response rating, Blackgrass: 0
Corn [2]; [21]
  Plant response rating, Corn: 0
Corn [2]; [22]
  Plant response rating, Corn: 0
foxtail, giant [3]; [21]
  Plant response rating, Foxtail, Giant: 0
foxtail, giant [3]; [22]
  Plant response rating, Foxtail, Giant: 0
Goosegrass [4]; [21]
  Plant response rating, Goosegrass: 0
Goosegrass [4]; [22]
  Plant response rating, Goosegrass: 0
oat, wild [5]; [21]
  Plant response rating, Oat, Wild: 0
oat, wild [5]; [22]
  Plant response rating, Oat, Wild: 0
pigweed, palmer [6]; [21]
  Plant response rating, Pigweed, Palmer: 0
pigweed, palmer [6]; [22]
  Plant response rating, Pigweed, Palmer: 0
Ragweed [7]; [21]
  Plant response rating, Ragweed: 0
Ragweed [7]; [22]
  Plant response rating, Ragweed: 0
ryegrass, Italian [8]; [21]
  Plant response rating, Ryegrass, Italian: 0
ryegrass, Italian [8]; [22]
  Plant response rating, Ryegrass, Italian: 0
Soybean [9]; [21]
  Plant response rating, Soybean: 0
Soybean [9]; [22]
  Plant response rating, Soybean: 0
Wheat [10]; [21]
  Plant response rating, Wheat: 0
Wheat [10]; [22]
  Plant response rating, Wheat: 0
Blackgrass [11]; [23]
  Blackgrass plant response rating: 0
Blackgrass [11]; [24]
  Plant response rating, Blackgrass: 0
Corn [12]; [23]
  Corn plant response rating: 0
Corn [12]; [24]
  Plant response rating, Corn: 0
foxtail, giant [13]; [23]
  Foxtail, Giant plant response rating: 0
foxtail, giant [13]; [24]
  Plant response rating, Foxtail, Giant: 0
Goosegrass [14]; [23]
  Goosegrass plant response rating: 0
Goosegrass [14]; [24]
  Plant response rating, Goosegrass: 0
kochia; [23]
  Kochia plant response rating: 0
kochia; [24]
  Plant response rating, Kochia: 20
oat, wild [15]; [23]
  Oat, Wild plant response rating: 0
oat, wild [15]; [24]
  Plant response rating, Oat, Wild: 0
pigweed, palmer [16]; [23]
  Pigweed, Palmer plant response rating: 0
pigweed, palmer [16]; [24]
  Plant response rating, Pigweed, Palmer: 50
Ragweed [17]; [23]
  Ragweed plant response rating: 0
Ragweed [17]; [24]
  Plant response rating, Ragweed: 0
ryegrass, Italian [18]; [23]
  Ryegrass, Italian plant response rating: 0
ryegrass, Italian [18]; [24]
  Plant response rating, Ryegrass, Italian: 0
Soybean [19]; [23]
  Soybean plant response rating: 20
Soybean [19]; [24]
  Plant response rating, Soybean: 20
Wheat [20]; [23]
  Wheat plant response rating: 10
Wheat [20]; [24]
  Plant response rating, Wheat: 10
galium; [23]
  Galium plant response rating: 0
galium; [24]
  Plant response rating, Galium: 0
horseweed; [23]
  Horseweed plant response rating: 0
horseweed; [24]
  Plant response rating, Horseweed: 0
barnyardgrass
  Plant response rating, Barnyardgrass: 0
ducksalad
  Plant response rating, Ducksalad: 0
rice
  Plant response rating, Rice: 0
sedge, umbrella
  Plant response rating, Sedge, Umbrella: 0
